From PubChem BioAssay AID2305 (GlaxoSmithKline (GSK), 2010)
Several values for one entry are separate records, joined by “and”; a condition that tells them apart may be missing. Equal values may be shown once.

Test system: P. falciparum 3D7 growth, pLDH absorbance
Assay: blood-stage malaria parasite growth potency – strain 3D7, dose response (AID 2305)

| Structure (SMILES) | IC50 |
| --- | --- |
| Cc1cc(Nc2ccc(O)cc2)nc2cccc(O)c12 | 740 nM |
| O=C(/C=C/c1ccc(Cl)c(Cl)c1)NCCCCN1CCCN(C(=O)Nc2ccc(Cl)c(Cl)c2)CC1 | 860 nM |
| Cc1cc(N2CCN(C(=O)OC(C)(C)C)CC2)ccc1N | 870 nM |
| O=C(Nc1cccc(-c2nc3ccccc3[nH]2)c1)c1cccc(NC(=O)c2ccco2)c1 | 360 nM |
| O=[N+]([O-])c1ccc(-c2nc3ccc(C4=N[C@H]5CCCC[C@H]5N4)cc3[nH]2)cc1 | 690 nM |
| Cc1ccccc1-c1nc2c(CN3CCC(O)(c4ccccc4)CC3)c(O)ccc2[nH]1 | 870 nM |
| CCCCc1ccc(NC(=O)Nc2ccc3c(c2)CCNCC3)cc1 | 580 nM |
| O=C(Nc1ccnc2ccccc12)NC1CCN(Cc2ccccc2)CC1 | 990 nM |
| CCN(CC)c1nc(Nc2cc(C)ccc2C)nc(Nc2ccccc2O)n1 | 640 nM |
| Cc1c(C(=O)NC2CCC(CN3CCC(c4c[nH]c5ccccc45)CC3)CC2)cnn1-c1c(Cl)cc(Cl)cc1Cl (stereo not drawn) | 710 nM |
| O=C(c1ccc(Cl)cc1)N1CCCC(C(=O)N(Cc2nnc(-c3ccccc3Cl)o2)C2CC2)C1 (stereo not drawn) | 230 nM |
| COc1ccc(S(=O)(=O)NCC2CCCN(CCCCCNC(=O)/C=C/c3ccc(Cl)c(Cl)c3)C2)cc1 (stereo not drawn) | 1060 nM |
| CC(=O)c1c[nH]c2ccc(/C=C/C(=O)NC3CCC(CCN4CCc5ccc(C#N)cc5CC4)CC3)cc12 (stereo not drawn) | 500 nM |
| Cc1cc(NC(=O)c2ccco2)ccc1OC1CCN(Cc2ccc(F)cc2)C1 (stereo not drawn) | 640 nM |
| Fc1cccc(COc2ccc(Nc3ncnc4sc(C#Cc5ncc[nH]5)cc34)cc2Cl)c1 | 130 nM |
| Cc1ccc(C(=O)Nc2ccnc(N(C)C3CCN(Cc4cccc(O)c4)CC3)c2)cn1 | 1880 nM |
| Cc1cccc2[nH]cc(C3CCN(CC4CCC(NC(=O)/C=C/c5ccc(Cl)c(Cl)c5)CC4)CC3)c12 (stereo not drawn) | 160 nM |
| Cc1ccc(C2CCN(CCCCNC(=O)c3ccc(-c4ccc(C(F)(F)F)cc4)cc3)CC2)c(O)c1 | 130 nM |
| COc1cc(C(=O)NC2CCN(Cc3ccccc3)CC2)ccc1-c1nc2cc(Cl)c(Cl)cc2[nH]1 | 520 nM |
| CC(Cc1ccc(OCCN2CCN(c3cccc(C(F)(F)F)c3)CC2)cc1)NCC(O)c1cccc(C(F)(F)F)c1 (stereo not drawn) | 180 nM |
| CCOC(=O)c1ccc(NC(=O)Nc2cccc(-c3cccc(-c4nc5c(C)cccc5[nH]4)c3)c2)cc1 | 110 nM |
| Cc1cc(N)c2cc(NC(=O)/C=C/c3ccccc3Cl)ccc2n1 | 400 nM |
| Cc1cccc2[nH]c(-c3cccc(-c4cccc(NC(=O)Nc5ccc(Cl)c(Cl)c5)c4)c3)nc12 | 370 nM |
| COc1cc2nc(NCCc3ccccc3)nc(NCc3cnn(C)c3C)c2cc1OC | 710 nM |
| CC(C)(C)c1ccc2nc(-c3ccc(C(=O)NC4CCN(Cc5ccccc5)CC4)s3)[nH]c2c1 | 360 nM |

| Structure (SMILES) | IC50 |
| --- | --- |
| Cc1ccc2c(NN=Cc3ccccc3[N+](=O)[O-])cc(C)nc2c1 | 420 nM |
| CCCC(=O)Nc1ccc(OCCCCN(CC(C)(C)C)c2ccc(C#N)c(C(F)(F)F)c2)cc1 | 1350 nM |
| CCCCN1CCN(CCCNc2c3ccccc3nc3ccccc23)CC1 | 510 nM |
| COc1ccc2nccc(N3CCC(NCCNCc4ccc5c(n4)NC(=O)CS5)C3)c2n1 (stereo not drawn) | 690 nM |
| COc1ccc(NC(=O)C=Cc2ccc(Oc3ccccc3Cl)c([N+](=O)[O-])c2)cc1OCCN(C(C)C)C(C)C | 880 nM |
| O=C(Nc1cccc(-c2cccc(-c3nc4ccccc4[nH]3)c2)c1)c1ccncc1 | 480 nM |
| CCOC(=O)c1cnc2c(OC)cc(OC)c(Cl)c2c1Nc1cccc(C)c1 | 840 nM |
| CCCNC(=O)C1Cc2c([nH]c3ccc(Br)cc23)C2(CCN(CCc3ccccc3)CC2)N1 (stereo not drawn) | 680 nM |
| COCCOc1cccc(CN2CCC(c3cc4nc(C)cc(C(F)(F)F)n4n3)C2)c1 (stereo not drawn) | 1330 nM |
| NC(N)=Nc1nc(-c2ccc(N=C(N)N3CCC[C@H]3CN3CCCC3)cc2)cs1 | 1110 nM |
| CCOc1ccc2nc(-c3ccccc3)cc(NN=Cc3ccncc3)c2c1 | 150 nM |
| COc1ccc(-c2onc(C(F)(F)F)c2-c2ccc(Br)cc2)c(O)c1 | 240 nM |
| COc1ccc(NC(=O)c2ccc(Br)c(C)c2)cc1N1CCN(CCCc2c[nH]c3ccccc23)CC1 | 380 nM |
| COc1ccc2c(c1)S(=O)(=O)N=C(N1CCCC1c1ccc(Cl)c(Cl)c1)N2C (stereo not drawn) | 1280 nM |
| CCOC(=O)c1[nH]c(-c2ccccc2)nc1-n1nc(C)cc1C | 690 nM |
| CCCc1cc(N2CCC(N3CCCC3)CC2)nc(Nc2ccc(OC)cc2)n1 | 810 nM |
| Fc1ccc(-c2cncc(Nc3ccncc3)n2)cc1 | 1320 nM |
| Oc1cc(Nc2ccnc3cc(-c4cccc(CN5CCCCC5)c4)ccc23)c(F)cc1Cl | 100 nM |
| CCCCCCNC(=O)C1Cc2c([nH]c3ccc(Br)cc23)C2(CCN(CCc3ccccc3)CC2)N1 (stereo not drawn) | 790 nM |
| CC(=O)Nc1cccc(-c2cn(-c3ccc(OCc4cccc(F)c4)c(Cl)c3)c3ncncc23)c1 | 70 nM |
| CCC(CO)NCC(O)Cn1c2ccc(Cl)cc2c2cc(Cl)ccc21 (stereo not drawn) | 770 nM |
| c1ccc(COc2ccc(Nc3ncnc4ccc(-c5ccc(CN6CCSCC6)o5)cc34)cc2)cc1 | 830 nM |
| CCCSc1nc2c(c(=O)n1Cc1ccco1)C1(CCCCC1)Cc1ccccc1-2 | 420 nM |
| CC(C)(C)c1nn(-c2ccccc2)c2[nH]c(=O)c(CNCc3ccc4c(c3)OCO4)cc12 | 1050 nM |
| COC(=O)c1sccc1NC(=S)NC1CCC(CN2CCC(c3c[nH]c4ccccc34)CC2)CC1 (stereo not drawn) | 920 nM and 570 nM |

| Structure (SMILES) | IC50 |
| --- | --- |
| CN1CCCC1CCNCc1cccc(-c2cnc(N3CCCC(C)(C)C3)nc2)c1 (stereo not drawn) | 930 nM |
| CC(=O)C1(c2ccccc2)CCN(CCC2(c3ccc(Cl)c(Cl)c3)CN(C(=O)C3CCCC3)CCO2)CC1 (stereo not drawn) | 800 nM |
| NC(N)=NCCCCN(Cc1ccccc1)c1ccccc1 | 740 nM |
| N#Cc1ccc2[nH]cc(-c3cn4cc(SC5CCCC5)ccc4n3)c2c1 | 940 nM |
| Cn1ccnc1S(=O)(=O)CCNCc1ccc(-c2ccc3ncnc(Nc4ccc(OCc5cccc(F)c5)c(Cl)c4)c3c2)o1 | 700 nM |
| CCn1c(-c2nonc2N)nc2cnc(Oc3cccc(NC(=O)c4ccc(OCCN5CCCCC5)cc4)c3)cc21 | 1060 nM |
| Cc1ccc(CC(C)NC[C@H](O)c2cccc(Cl)c2)cc1 (stereo partly drawn) | 860 nM |
| O=C(Nc1cc(C(F)(F)F)cc(C(F)(F)F)c1)Nc1ccc(Cl)c(Cl)c1 | 240 nM |
| CN(C)c1ccc(-c2ccc(C(=O)NC3CCN(Cc4ccc5c(c4)OCCO5)CC3)s2)cc1 | 1120 nM |
| CS(=O)(=O)CCNCc1cccc(-c2cc3c(Nc4ccc5c(cnn5Cc5ccccc5)c4)ncnc3s2)c1 | 550 nM |
| CC(=O)Nc1nc(C(=O)Nc2ccc(-c3cccc(-c4nc5ccc(F)cc5[nH]4)c3)cc2)cs1 | 290 nM |
| Cc1cccc2[nH]c(-c3ccc(-c4ccc(CNCc5ccccc5)cc4)s3)nc12 | 210 nM |
| O=C(/C=C/c1ccc(Cl)c(Cl)c1)NCCC1CCC(N2CCC(c3c[nH]c4ccccc34)CC2)CC1 (stereo not drawn) | 200 nM |
| Fc1ccc2nc(-c3cccc(-c4ccc(CN5CCN(c6ccncc6)CC5)cc4)c3)[nH]c2c1 | 210 nM |
| c1ccc(OCCCCN2CCCCC2)cc1 | 540 nM |
| CN(C)CCOc1cc(O)c2c(c1)OC(C)(C)C=C2c1cccs1 | 290 nM |
| Cc1cccc2[nH]c(-c3ccc(-c4cccc(CN5CCN(CCO)CC5)c4)cc3)nc12 | 730 nM |
| Cc1ccc(O)c(C(=O)c2cnc3c(c2)c(-c2ccc(F)cc2)c(C#N)c(=O)n3C)c1 | 970 nM |
| COc1cccc(-c2c(C#N)c(N)nc3c2c(C)nn3-c2ccccc2)c1O | 280 nM |
| CC(=O)N/N=C/[C@H](CCc1ccccc1)NC(=O)[C@H](CC(C)C)NC(=O)c1cccc(OCCN2CCOCC2)c1 | 240 nM |
| CN(C)CCCc1cc2c(cc1Cl)CCN2C(=O)Nc1ccc(-c2ccncc2)c2ccccc12 | 1180 nM |
| N#Cc1cncc(-c2nc3c(N4CCCC(N)C4)cccc3n2CCNCc2ccccc2)c1 (stereo not drawn) | 770 nM |
| CN(C)Cc1c(O)ccc2[nH]c(-c3ccc(F)cc3F)nc12 | 1300 nM |
| Cc1noc(C)c1-c1cccc(CNCc2cccc(-c3cccc(-c4nc5ccc(F)cc5[nH]4)c3)c2)c1 | 180 nM |
| COc1cc(C(C)C)ccc1C1CCN(CCCCNC(=O)c2ccc(NC(=O)c3ccc(Cl)cc3)cc2)CC1 | 450 nM |

| Structure (SMILES) | IC50 |
| --- | --- |
| Cc1cccc(C)c1N1CCN(C2CCC(NC(=O)c3cc4ccccc4[nH]3)CC2)CC1 (stereo not drawn) | 600 nM |
| C=C[C@H]1CN2CC[C@H]1C[C@@H]2[C@@H](O)c1ccnc2ccc(OC)cc12 | 120 nM |
| CS(=O)(=O)Cc1ccc(Nc2nccc(-c3c(-c4cccc(NC(=O)c5c(F)cccc5F)c4)nn4ncccc34)n2)cc1 | 160 nM |
| O=S(=O)(/C=C/c1ccccc1)N(Cc1ccc(-c2ccc(CNCCc3ccccn3)cc2)cc1)CC1CCCCN1 (stereo not drawn) | 740 nM |
| O=C(c1cc(-c2ccccc2)n[nH]1)N1CCN(S(=O)(=O)c2ccc(Cl)s2)CC1 | 930 nM |
| N#CN1CC[C@@H](NS(=O)(=O)Cc2ccc(Cl)c(Cl)c2)C1 | 530 nM |
| O=C(CCc1cnc[nH]1)Nc1ccc(-c2ccc(-c3nc4ccc(F)cc4[nH]3)cc2)cc1 | 690 nM |
| CC(C)c1sc(N2CCN(C)CC2)nc1C(=O)Nc1ccc(F)cc1C(F)(F)F | 190 nM |
| N#Cc1ccc2c(c1)CCN(CCC1CCC(NC(=O)/C=C/c3cnc4ccccc4c3)CC1)CC2 (stereo not drawn) | 1210 nM |
| NCCNc1ccc([N+](=O)[O-])cc1C(=O)Nc1cccc(Cl)c1 | 1260 nM |
| COc1ccc2c(NN=Cc3ccccc3[N+](=O)[O-])ccnc2c1 | 740 nM |
| Cc1cc(-c2ccc(CNCc3ccc(F)cc3)cc2)ccc1S(=O)(=O)NCCN1CCCC1 | 720 nM |
| COc1ccc2nccc([C@@H](O)CN3CCC(NS(=O)(=O)c4cc5c(cc4Cl)SCC(=O)N5)CC3)c2c1 | 980 nM |
| Cc1ccc(O)cc1Nc1ccnc2cc(-c3nccs3)ccc12 | 880 nM |
| COc1cccc(Nc2c(C(N)=O)cnc3ccc(-c4ccc(S(C)=O)cc4)cc23)c1 (stereo not drawn) | 190 nM |
| CC(C)c1ccc(NC(=O)NCCCC2CCCN(CCCCCNC(=O)/C=C/c3ccc(Cl)c(Cl)c3)C2)cc1 (stereo not drawn) | 960 nM |
| CN(C)c1ccc(-c2csc(C(=O)NCC3CCN(CCC(C)(C)C)C3)c2)cc1 (stereo not drawn) | 1500 nM |
| CN(C)C(=O)CC(=O)NCc1c(Cl)cccc1Cl | 200 nM |
| CC(C)CN1CCC(N(C)c2cc(NC(=O)c3cccc(F)c3)ccn2)CC1 | 850 nM |
| NC12CC3CC(CC(C3)C1)C2 | 160 nM |
| CCCNCc1ccc(-c2ccc(CN(CCOC)C(=O)/C=C/c3ccccc3C)cc2)nc1 | 900 nM |
| O=C(Nc1cccnc1)c1cc(-c2cccnc2)nc2ccc(Cl)cc12 | 1060 nM |
| N#Cc1ccc(-c2ccc3nc(N4CCCN(C5CCC5)CC4)ccc3c2)cc1 | 1500 nM |
